These results are taken from patent publication US20250034147A1, “MDM2 DEGRADERS AND USES THEREOF” (Kymera Therapeutics, Inc., priority 2021, published 2025).

One assay concerns the target T1, HiBiT-tagged MDM2 (Homo sapiens, UniProt Q00987).
T1 construct: expressed in transfected cells
Put plainly: MDM2 HiBit HEK293T degradation. Type of assay: cell-based. Conditions: HEK293T cells stably expressing C-terminally HiBiT-tagged MDM2; 4 h; read-out: MDM2 HiBit HEK293T degradation 4 h: Average external-Abs DC50. In a few lines:
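Degradation was measured in HEK293T cells stably expressing C-terminally HiBiT-tagged MDM2, a pool selected with 1 microgram/ml puromycin. A MDM2 tool degrader and HaloPROTAC3 served as positive controls. Potency is reported as DC50 in letter bins.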

The next assay deals with RS411 cells. Kind of assay: Cell Viability CTG Assay. Conditions: Homo sapiens, RS4-11, CellTiter Glo (CTG) cell viability, read-out: Average external-IC50. Type of assay: cell-based. The protocol: Compounds or DMSO 60 nL were stamped to the cell plate as the platemap. RS411 cells were centrifuged at 800 rpm for 5 min, suspended with culture medium, and counted with Countess (Invitrogen). The cell density was adjusted to the recommend information. 30 μL of cell solution (1000 cells/well) was added to the assay plate as the platemap and 30 μL of media was added to column 2 and column 23 as the platemap. The plate was spun down briefly. The final concentration of the compounds started at 10 μM (3 fold dilution and 11 doses) and final DMSO concentration was 0.2%. The plate was spun down briefly and incubated at 37° C., 5% CO2 for 1 day. […] 30 μL CellTiter Glo reagent was added to each well and the plate was centrifuged at 1000 rpm for 30 sec. The plate was shaken for 1 min and centrifuged at 1000 rpm for 30 sec. The plate was incubated at RT for 10 min to stabilize the luminescent signal and the luminescence was read by EnVision.
The letter codes for IC50 indicate the concentration of compound required to affect 50% of cells: A (<0.005 μM), B (0.005-0.05 μM), C (0.05-0.5 μM), and D (>0.5 μM).
(Cellular ATP, detected with luciferase, serves as a proxy for viable cell number.)

Molecules are shown by their SMILES. A value given as a limit tells only on which side of the number the result lay.

T1 sequence (Q00987 whole entry): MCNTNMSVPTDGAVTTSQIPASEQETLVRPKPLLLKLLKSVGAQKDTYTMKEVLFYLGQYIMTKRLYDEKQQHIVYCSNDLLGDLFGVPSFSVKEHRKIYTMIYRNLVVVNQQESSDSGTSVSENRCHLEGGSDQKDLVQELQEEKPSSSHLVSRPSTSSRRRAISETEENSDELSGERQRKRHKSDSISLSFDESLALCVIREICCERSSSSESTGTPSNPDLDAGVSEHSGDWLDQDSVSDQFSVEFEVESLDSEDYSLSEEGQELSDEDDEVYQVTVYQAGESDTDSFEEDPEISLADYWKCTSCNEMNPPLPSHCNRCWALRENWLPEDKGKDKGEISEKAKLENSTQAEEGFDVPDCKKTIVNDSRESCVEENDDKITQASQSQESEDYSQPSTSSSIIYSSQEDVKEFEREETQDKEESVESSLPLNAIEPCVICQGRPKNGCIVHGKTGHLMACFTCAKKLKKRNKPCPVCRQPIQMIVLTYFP

In general, DC50 refers to the midpoint of the concentration-degradation curve. Broadly, the IC50 is the concentration at which inhibition is half-maximal. Take `Cn1c(=O)n(C2CCC(=O)NC2=O)c2ccc(N3CC4(CCN(C[C@H]5CC[C@H](NC(=O)[C@@H]6NC7(CCCCC7)[C@@]7(C(=O)Nc8cc(Cl)ccc87)[C@H]6c6cccc(Cl)c6F)CC5)CC4)C3)cc21` (some centres unmarked) [I-16]: the DC50 on HiBiT-tagged MDM2 was less than 10 nM. In addition, the IC50 with RS411 cells is less than 5 nM.
In the same order, the values of `CN1[C@@H](C(=O)N[C@H]2CC[C@H](CN3CCC(c4ccc5c(c4)n(C)c(=O)n5C4CCC(=O)NC4=O)CC3)CC2)[C@H](c2cccc(Cl)c2F)[C@]2(C(=O)Nc3cc(Cl)ccc32)C12CCCCC2` (some centres unmarked) [I-17] are less than 10 nM and less than 5 nM.
In the same order, the values of `Cn1c(=O)n(C2CCC(=O)NC2=O)c2ccc(N3CCC(OC4CCN(C[C@H]5CC[C@H](NC(=O)[C@@H]6NC7(CCCCC7)[C@@]7(C(=O)Nc8cc(Cl)ccc87)[C@H]6c6cccc(Cl)c6F)CC5)CC4)CC3)cc21` (some centres unmarked) [I-18] are less than 10 nM and less than 5 nM.
In the same order, the values of `Cn1c(=O)n(C2CCC(=O)NC2=O)c2ccc(N3CC(N4CCN(C(=O)[C@H]5CC[C@H](NC(=O)[C@@H]6NC7(CCCCC7)[C@@]7(C(=O)Nc8cc(Cl)ccc87)[C@H]6c6cccc(Cl)c6F)CC5)CC4)C3)cc21` (some centres unmarked) [I-19] are less than 10 nM and 5 to 50 nM.
With `Cn1c(=O)n(C2CCC(=O)NC2=O)c2ccc(CCN3CCN(CCCN4CCC(NC(=O)[C@@H]5NC6(CCC(C)(C)CC6)[C@@]6(C(=O)Nc7cc(Cl)ccc76)[C@H]5c5ccnc(Cl)c5F)CC4)CC3)cc21` (some centres unmarked) [I-20], at HiBiT-tagged MDM2, the DC50 was less than 10 nM. For the same compound, the IC50 with RS411 cells is less than 5 nM.
In the same order, the values of `Cn1c(=O)n(C2CCC(=O)NC2=O)c2ccc(CC[C@@H]3CN(C[C@H]4CC[C@H](NC(=O)[C@@H]5NC6(CCCCC6)[C@@]6(C(=O)Nc7cc(Cl)ccc76)[C@H]5c5cccc(Cl)c5F)CC4)CCO3)cc21` (some centres unmarked) [I-21] are less than 10 nM and less than 5 nM.
For the compound `COc1cc2c(cc1OC(C)C)[C@H](c1ccc(Cl)cc1)N(c1ccc(N(C)CCC3CCN(CCCCC#Cc4cccn5c(N6CCC(=O)NC6=O)cnc45)CC3)cc1)C(=O)C2` [I-22], on HiBiT-tagged MDM2, the DC50 was more than 1000 nM. Besides, the IC50 in the assay with RS411 cells lay within 50 to 500 nM.
For the compound `Cn1c(=O)n(C2CCC(=O)NC2=O)c2ccc(CN3CCC(OC4CN(C(=O)[C@H]5CC[C@H](NC(=O)[C@@H]6NC7(CCCCC7)[C@@]7(C(=O)Nc8cc(Cl)ccc87)[C@H]6c6cccc(Cl)c6F)CC5)C4)CC3)cc21` (some centres unmarked) [I-23], at HiBiT-tagged MDM2, the DC50 is less than 10 nM. Also, in the assay with RS411 cells, the IC50 was less than 5 nM.
Regarding `Cn1c(=O)n(C2CCC(=O)NC2=O)c2ccc(C3CN(C[C@H]4CC[C@H](NC(=O)[C@@H]5NC6(CCCCC6)[C@@]6(C(=O)Nc7cc(Cl)ccc76)[C@H]5c5cccc(Cl)c5F)CC4)C3)cc21` (some centres unmarked) [I-24], the DC50 at HiBiT-tagged MDM2 was less than 10 nM. For the same compound, the IC50 in the assay with RS411 cells is less than 5 nM.
The corresponding values for `Cn1c(=O)n(C2CCC(=O)NC2=O)c2ccc(C3CCN(C[C@H]4CC[C@H](NC(=O)[C@@H]5NC6(CCC(C)(C)CC6)[C@@]6(C(=O)Nc7cc(Cl)ccc76)[C@H]5c5ccnc(Cl)c5F)CC4)CC3)cc21` (some centres unmarked) [I-25] are less than 10 nM and less than 5 nM.
For `CC1(C)CCC2(CC1)NC(C(=O)N[C@H]1CC[C@H](CN3CCN(CCCc4ccn5c(N6CCC(=O)NC6=O)cnc5c4)CC3)CC1)[C@H](c1ccnc(Cl)c1F)[C@]21C(=O)Nc2cc(Cl)ccc21` (some centres unmarked) [I-26], on HiBiT-tagged MDM2, the DC50 is less than 10 nM. In addition, in the assay with RS411 cells, the IC50 is less than 5 nM.
Turning to `Cn1c(=O)n(C2CCC(=O)NC2=O)c2ccc(C3CCN(C(=O)CN4CCC(NC(=O)[C@@H]5NC6(CCCCC6)[C@@]6(C(=O)Nc7cc(Cl)ccc76)[C@H]5c5cccc(Cl)c5F)CC4)CC3)cc21` (some centres unmarked) [I-27], at HiBiT-tagged MDM2, the DC50 was less than 10 nM. Also, the IC50 in the assay on RS411 cells is less than 5 nM.
In the case of `CN1[C@@H](C(=O)Nc2ccc(CN3CCC(c4ccc5c(c4)n(C)c(=O)n5C4CCC(=O)NC4=O)CC3)cc2)[C@H](c2cccc(Cl)c2F)[C@]2(C(=O)Nc3cc(Cl)ccc32)C12CCCCC2` (some centres unmarked) [I-28], the DC50 at HiBiT-tagged MDM2 is less than 10 nM. The IC50 with RS411 cells is less than 5 nM.
In the same order, the values of `Cn1c(=O)n(C2CCC(=O)NC2=O)c2ccc(C3CCN(C(=O)CCCN4CCC(NC(=O)[C@@H]5NC6(CCCCC6)[C@@]6(C(=O)Nc7cc(Cl)ccc76)[C@H]5c5cccc(Cl)c5F)CC4)CC3)cc21` (some centres unmarked) [I-29] are 10 to 100 nM and 5 to 50 nM.
In the same order, the values of `Cn1c(=O)n(C2CCC(=O)NC2=O)c2ccc(CCCN3CCN(C(=O)[C@H]4CC[C@H](NC(=O)[C@@H]5NC6(CCCCC6)[C@@]6(C(=O)Nc7cc(Cl)ccc76)[C@H]5c5cccc(Cl)c5F)CC4)CC3)cc21` (some centres unmarked) [I-30] are less than 10 nM and less than 5 nM.
In the same order, the values of `Cn1c(=O)n(C2CCC(=O)NC2=O)c2ccc(CCN3CCN(C(=O)CN4CCC(NC(=O)[C@@H]5NC6(CCC(C)(C)CC6)[C@@]6(C(=O)Nc7cc(Cl)ccc76)[C@H]5c5ccnc(Cl)c5F)CC4)CC3)cc21` (stereo partly drawn) [I-32, (3′R,4′S,5′R)-6″-chloro-4′-(2-chloro-3-fluoropyridin-4-yl)-N-(1-(2-(4-(2-(1-(2,6-dioxopiperidin-3-yl)-3-methyl-2-oxo-2,3-dihydro-1H-benzo[d]imidazol-5-yl)ethyl)piperazin-1-yl)-2-oxoethyl)piperidin-4-yl)-4,4-dimethyl-2″-oxodispiro[cyclohexane-1,2′-pyrrolidine-3′,3″-indoline]-5′-carboxamide] are less than 10 nM and less than 5 nM.
Take `Cn1c(=O)n(C2CCC(=O)NC2=O)c2ccc(C3CN(Cc4ccc(NC(=O)[C@@H]5NC6(CCCCC6)[C@@]6(C(=O)Nc7cc(Cl)ccc76)[C@H]5c5cccc(Cl)c5F)cc4)C3)cc21` (some centres unmarked) [I-34]: the DC50 on HiBiT-tagged MDM2 is less than 10 nM. Besides, the IC50 in the assay with RS411 cells was in the range of 50 to 500 nM.
Turning to `O=C1CCC(n2c(=O)n(CP(=O)(O)O)c3cc(C4CCN(C(=O)[C@H]5CC[C@H](NC(=O)[C@@H]6NC7(CCCCC7)[C@@]7(C(=O)Nc8cc(Cl)ccc87)[C@H]6c6cccc(Cl)c6F)CC5)CC4)ccc32)C(=O)N1` (some centres unmarked) [I-35], the DC50 on HiBiT-tagged MDM2 lay within 100 to 1000 nM. In addition, the IC50 with RS411 cells was 50 to 500 nM.
Take `Cn1c(=O)n(C2CCC(=O)NC2=O)c2ccc(C3CCN(C(=O)[C@@H]4CC[C@@H](NC(=O)[C@@H]5NC6(CCCCC6)[C@@]6(C(=O)Nc7cc(Cl)ccc76)[C@H]5c5cccc(Cl)c5F)CO4)CC3)cc21` (some centres unmarked) [I-37]: on HiBiT-tagged MDM2, the DC50 was less than 10 nM. In the assay on RS411 cells, the IC50 is less than 5 nM.
In the same order, the values of `Cn1c(=O)n(C2CCC(=O)NC2=O)c2ccc(CCCC3(C(=O)O)CCN(C[C@H]4CC[C@H](NC(=O)[C@@H]5NC6(CCCCC6)[C@@]6(C(=O)Nc7cc(Cl)ccc76)[C@H]5c5cccc(Cl)c5F)CC4)CC3)cc21` (some centres unmarked) [I-38] are less than 10 nM and 5 to 50 nM.
In the same order, the values of `Cn1c(=O)n(C2CCC(=O)NC2=O)c2ccc(C3CCN(CCCN4CCC(NC(=O)[C@@H]5NC6(CCCCC6)[C@@]6(C(=O)Nc7cc(Cl)ccc76)[C@H]5c5cccc(Cl)c5F)CC4)CC3)cc21` (some centres unmarked) [I-39] are less than 10 nM and 5 to 50 nM.
On to `O=C1CCC(n2c(=O)n(CCP(=O)(O)O)c3cc(C4CCN(C(=O)[C@H]5CC[C@H](NC(=O)[C@@H]6NC7(CCCCC7)[C@@]7(C(=O)Nc8cc(Cl)ccc87)[C@H]6c6cccc(Cl)c6F)CC5)CC4)ccc32)C(=O)N1` (some centres unmarked) [I-40], for which the DC50 on HiBiT-tagged MDM2 is 10 to 100 nM. In addition, the IC50 in the assay with RS411 cells was in the range of 50 to 500 nM.
On to `Cn1c(=O)n(C2CCC(=O)NC2=O)c2ccc(CCN3CCN(C(=O)[C@@H]4CC[C@@H](NC(=O)[C@@H]5NC6(CCCCC6)[C@@]6(C(=O)Nc7cc(Cl)ccc76)[C@H]5c5cccc(Cl)c5F)CO4)CC3)cc21` (some centres unmarked) [I-41], for which, on HiBiT-tagged MDM2, the DC50 is less than 10 nM. In the assay with RS411 cells, the IC50 was less than 5 nM.
Regarding `O=C1CCN(c2cnc3cc(C4CCN(C(=O)[C@H]5CC[C@H](NC(=O)[C@@H]6NC7(CCCCC7)[C@@]7(C(=O)Nc8cc(Cl)ccc87)[C@H]6c6cccc(Cl)c6F)CC5)CC4)ccn23)C(=O)N1` [I-42], the DC50 at HiBiT-tagged MDM2 is less than 10 nM. Further, the IC50 in the assay with RS411 cells was less than 5 nM.
Consider `CN1[C@@H](C(=O)N[C@H]2CC[C@H](CN3CCC4(CC3)CN(CCc3ccc5c(c3)n(C)c(=O)n5C3CCC(=O)NC3=O)C4)CC2)[C@H](c2ccnc(Cl)c2F)[C@]2(C(=O)Nc3cc(Cl)ccc32)C12CCC(C)(C)CC2` (some centres unmarked) [I-43], for which the DC50 on HiBiT-tagged MDM2 is less than 10 nM. For the same compound, the IC50 in the assay with RS411 cells was less than 5 nM.
For `Cn1c(=O)n(C2CCC(=O)NC2=O)c2ccc(C#CCC3(C(=O)O)CCN(C(=O)[C@H]4CC[C@H](NC(=O)[C@@H]5NC6(CCCCC6)[C@@]6(C(=O)Nc7cc(Cl)ccc76)[C@H]5c5cccc(Cl)c5F)CC4)CC3)cc21` (some centres unmarked) [I-44], the DC50 on HiBiT-tagged MDM2 lay within 10 to 100 nM. For the same compound, in the assay with RS411 cells, the IC50 is less than 5 nM.
For `O=C1CCN(c2cnc3c(C4CCN(C(=O)[C@H]5CC[C@H](NC(=O)[C@@H]6NC7(CCCCC7)[C@@]7(C(=O)Nc8cc(Cl)ccc87)[C@H]6c6cccc(Cl)c6F)CC5)CC4)cccn23)C(=O)N1` [I-45], on HiBiT-tagged MDM2, the DC50 was less than 10 nM. For the same compound, the IC50 in the assay on RS411 cells fell in the range of 5 to 50 nM.
In the same order, the values of `Cn1c(=O)n(C2CCC(=O)NC2=O)c2ccc(C#CC3CCN(C[C@H]4CC[C@H](NC(=O)[C@@H]5NC6(CCCCC6)[C@@]6(C(=O)Nc7cc(Cl)ccc76)[C@H]5c5cccc(Cl)c5F)CC4)C(=O)C3)cc21` (some centres unmarked) [I-46] are less than 10 nM and 5 to 50 nM.
